Measured values taken from publication PMC10380348 (2023).

System: MnG4C1 (DNA, G4) AGGGGGGGAGTTAGGGCGCACGTTAGGGGTGCTATTAGGG
Test: ThT fluorescence light-up, 492 nm
Settings: 50 mM Tris-HCl pH 7.5, room temperature, 3 µM ThT, 1 mM aptamer

Cc1ccc2c(c1)sc(-c1ccc(N(C)C)cc1)[n+]2C
binding (K+ 0-30 mM): yes | binding (Mn2+ 0-100 µM): yes
